Measured values reported in US6153415A, “Method for producing amide compounds using a nitrile hydratase from a thermophilic bacillus” (priority 1999, dated 2000).

B1: BR449 nitrile hydratase: cobalt-containing nitrile hydratase of Bacillus sp. BR449, alpha subunit SEQ ID NO:9, beta subunit SEQ ID NO:11 (protein)
alpha: MTIDQKNTNIDPRFPHHHPRPQSFWEARAKALESLLIEKGHLSSDAIERVIKHYEHELGPMNGAKVVAKAWTDPAFKQRLLEDPETVLRELGYYGLQGEHIRVVENTDTVHNVVVCTLCSCYPWPLLGLPPSWYKEPAYRARVVKEPRQVLKEFGLDLPDSVEIRVWDSSSEIRFMVLPQRPEGTEGMTEEELAKLVTRDSMIGVAKIEPLKLR
beta: MNGIHDVGGMDGFGKVMYVKEEEDIYFTHDWERLAFGLVAGCMAQGLGMKAFDEFRIGIELMRPVDYLTSSYYGHWIATVAYNLVDTGVLDEKELDERTEVFLKKPDTKIPRREDPALVKLVEKALYEGLSPIREISASPRFKVGERIKTKNIHPTGHTRFPRYARDKYGVIDEIYGAHVFPDDAAHRKGENPQYLYRVRFEAEELWGYKQKDSVYIDLWESYMEPVSH

Experiments:
[1] = tested on: amidase; experiment: Effect of metal ions during growth on amidase activity of BR449; assay type: cell-based, Bacillus sp. BR449; settings: BR449 grown with divalent metal salt 20 mg/l
Description: (§1) Bacillus sp. BR449 (ATCC 202119) was grown in OP medium at pH 7.2 which contained per liter: KH2 PO4, 1 g; K2 HPO4, 0.5 g; yeast extract, 1 g; malt extract, 1 g; peptone 2 g; glycerol, 3 g; casamino acids, 0.1 g. The isolate was grown at 60° C. using turbidity to monitor culture density. Divalent metal salts were added to the growth medium where indicated in concentrations of 20 mg/l.
(§2) Nitrile hydratase activity was measured using whole cells in assays containing 20 mg (dry wt) cells, in 1 ml 0.5 M acrylonitrile and potassium phosphate buffer, containing 0.5 M acrylonitrile, pH 7.5. The reaction mixture was incubated in a water bath at 50° C. with shaking for 10 minutes, and the reaction stopped by addition of 0.2 ml 2 N HCl. Acrylamide formation was measured using HPLC by injection into a Novapak C-18 reverse phase column and eluted with 1:12 acetonitrile:5mM potassium phosphate buffer, pH 2.5. Peaks were identified at 200 nm with a Waters (Newton, Mass.) variable wavelength detector and analyzed with reference to chemical standards. One unit of nitrile hydratase activity is defined as the formation of one μmole acrylamide per minute. Amidase activity was measured in the same manner using 0.5 M acrylamide as substrate by measurement of acrylic acid formation.
(§3) Divalent metal ions were added during growth of isolate BR449 to provide indications of metals stimulatory to nitrile hydratase production.

[2] = target: T1, BR449 nitrile hydratase (Bacillus sp. BR449, UniProt Q9L541+Q9L542); experiment: Effect of additions during growth on nitrile hydratase activity of BR449; assay type: cell-based; settings: for Nitrile hydratase Specific Activity: BR449 grown with divalent metal salt 20 mg/l
T1 construct: alpha 214 aa, beta 229 aa
T1 sequence (Q9L541 1-214): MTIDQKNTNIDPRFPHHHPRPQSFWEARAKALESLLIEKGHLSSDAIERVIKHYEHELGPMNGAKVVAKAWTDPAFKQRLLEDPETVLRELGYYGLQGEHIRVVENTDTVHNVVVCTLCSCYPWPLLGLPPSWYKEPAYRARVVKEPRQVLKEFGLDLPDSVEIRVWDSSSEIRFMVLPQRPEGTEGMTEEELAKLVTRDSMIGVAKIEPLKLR
T1 sequence (Q9L542 1-229): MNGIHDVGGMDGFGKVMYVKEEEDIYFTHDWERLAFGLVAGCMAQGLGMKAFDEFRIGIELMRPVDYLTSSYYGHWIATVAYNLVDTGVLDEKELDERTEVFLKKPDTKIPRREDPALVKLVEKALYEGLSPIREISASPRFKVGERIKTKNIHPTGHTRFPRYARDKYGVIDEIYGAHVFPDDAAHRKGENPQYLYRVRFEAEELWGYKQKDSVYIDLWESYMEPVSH
Description: as §1, §2, §3

[3] = tested on: Bacillus sp. BR449; experiment: Effect of metal ions on growth (total cells) of BR449; assay type: cell-based; settings: divalent metal salt 20 mg/l in growth medium
Description: as §1

[4] = target: T2, hydratase of BR449 (Bacillus sp. BR449, UniProt Q9L541+Q9L542); experiment: Nitrile hydratase activity with varied acrylonitrile concentration (substrate inhibition); assay type: biochemical; settings: 10% acrylonitrile, assay at 50° C.
T2 construct: alpha 214 aa, beta 229 aa
T2 sequence (Q9L541 1-214): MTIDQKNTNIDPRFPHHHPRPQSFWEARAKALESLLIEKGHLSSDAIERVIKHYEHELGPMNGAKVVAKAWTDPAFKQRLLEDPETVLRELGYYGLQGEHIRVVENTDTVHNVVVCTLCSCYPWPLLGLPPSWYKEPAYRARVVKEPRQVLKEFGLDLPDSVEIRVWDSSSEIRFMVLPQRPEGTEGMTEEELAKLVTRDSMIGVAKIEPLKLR
T2 sequence (Q9L542 1-229): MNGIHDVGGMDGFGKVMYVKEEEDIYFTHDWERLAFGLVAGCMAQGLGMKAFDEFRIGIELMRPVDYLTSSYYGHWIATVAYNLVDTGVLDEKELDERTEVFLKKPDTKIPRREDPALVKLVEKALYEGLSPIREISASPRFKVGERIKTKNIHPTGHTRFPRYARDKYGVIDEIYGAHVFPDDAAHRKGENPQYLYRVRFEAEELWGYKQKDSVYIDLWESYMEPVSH
Description: as §2, with “Nitrile hydratase activity was measured using whole cells in assays containing 20 mg (dry wt) cells, in 1 ml 0.5 M acrylonitrile and potassium phosphate buffer, containing 0.5 M acrylonitrile, pH 7.5.” left out

[5] = Enzyme stability study, whole cells incubated in buffer at varied temperatures; assay type: physicochemical, Bacillus sp. BR449; settings: two hour incubations in buffer, assay at 50° C.
Description: For studies of nitrile hydratase stability, whole cells of BR449 were incubated at varied temperatures in 50 mM potassium phosphate buffer, pH 7.5, following which the nitrile hydratase assay was carried out at 50° C.

Molecule	Amidase Specific Activity [1] [U/mg]	Nitrile hydratase Specific Activity [2] [U/mg]	Total Cells [3]	Induction of hydratase activity ([2]; addition during BR449 growth)	inhibition of BR449 hydratase (substrate inhibition) [4] [%]	temperature to which the enzyme is stable [5] [°C]
[Co+2] [Co^2+]	9.7	71.5	225 mt/1, dry weight	–	–	–
[Cu+2] [Cu^2+]	1.5	1.9	90 mt/1, dry weight	–	–	–
[Fe+2] [Fe^2+]	2.3	4.3	490 mt/1, dry weight	–	–	–
[Mn+2] [Mn^2+]	2.1	2.2	65 mt/1, dry weight	–	–	–
[Ni+2] [Ni^2+]	3.4	6.8	80 mt/1, dry weight	–	–	–
C=CC#N [acrylonitrile]	–	–	–	without effect	47	–
B1	–	–	–	–	–	≤ 60
